Data reported in US11478528B2, “Antimicrobial peptides against Listeria monocytogenes” (MATERIAS S.r.l., priority 2017, dated 2022).
Entries after “also recorded” stand apart in the source; their conditions may differ. Ends that are not written are not given here.

Experiments:
[1] = system: L. monocytogenes biofilms; experiment: Antibiofilm activity assay with SEM on steel discs; assay type: cell-based, Listeria monocytogenes; settings: for cells on steel discs by SEM, 5000× image: 50 μM
Experimental: The activity of the Bac-amp1 and IDR-1018 peptides on L. monocytogenes biofilms was further investigated by scanning electron microscopy (SEM).
Specifically, in this example the three-dimensional biofilm architecture, developed on stainless steel materials, was studied.
The Aisi 304 stainless steel discs with a diameter of 14.5 mm (SS) were treated with 600 μl of standardized inoculum in the presence or absence of each of the peptides at the concentration of 25 μM or 50 μM, or with control medium, according to the same method of Example 4a and repeatedly washed in sterile PBS to remove planktonic cells and fixated on a new plate with 1 ml of Karnovsky fixative containing 5% glutaraldehyde, 4% paraformaldehyde in buffer 0.064 M (Electronic Microscopy Science, Hatfield, Pa., USA) for 1 hour at 4° C. Thereafter, the samples were washed in 0.1 M cacodylate sodium buffer at pH 7.4 (Electronic Microscopy Science, Hatfield, Pa., USA) and the fixated cells were dehydrated in a series of aqueous acetone solutions at different concentrations, in particular 25%, 50%, 75% and 100%. The samples were glued onto polished aluminium sample holders (Electronic Microscopy Science, Hatfield, Pa., USA) and uniformly vacuum coated with a 20-nm thick gold layer with the K950 high-vacuum Turbo Evaporator and a K 350 coupling (Emitech Ltd, Ashford, UK). The coated samples were examined at the JEOL 6700 FEG Field Emission Electron Microscope (SEM Jeol, City and State) with magnification from 1000× to 5000×. For each sample, a number of images (5-10), acquired as electronic images were randomly analyzed.

[2] = pH stability assay by Circular Dichroism; settings: for pH range with increase in the percentage of unordered random coil structure: 10 mM SDS, 24 hours at 37° C.
Experimental: The stability of the Bac-amp1 and IDR-1018 peptides was assessed by studying their secondary structure with Circular Dichroism (CD) spectroscopy in the presence of Sodium Dodecyl Sulfate (SDS) micelles at a concentration of 10 mM to mimic the condition of the cell membrane, in different temperature and pH conditions.
CD assays were performed with a Jasco J-810 Spectropolarimeter equipped with a thermostatted cuvette compartment. The samples were loaded into a 0.1 cm-long quartz cuvette (Hellma Analytics) and the spectrum was analyzed in the 190 nm to 250 nm range at temperatures of 15° C. or 90° C. for each sample.
The CD spectra were acquired at a scanning speed of 20 nm/min, and the recorded results represent an average of 5 scans. The spectra at 90° C. were collected at time zero and after 2 hours to evaluate the thermostability of peptides at high temperatures.
The average ellipticity of the residues ([θ], degrees cm^2 dmol^−1) was calculated using the following equation: [θ]=100θ/cn1 where θ represents ellipticity (m degrees), c is the concentration (mM) of the peptide, n is the number of residues. The secondary structure was calculated through the DICHROWEB site (Whitmore L and Wallace B A, 2004, Nucleic Acids Research 32: 668-673, Whitmore L and Wallace B A, 2008, Biopolymers 89:392-400, Lobley et al, 2002, Bioinformatics 18:211-212), using three different algorithms (SELCON3, CONTIN-LLe CDSSTR) (Sreerema N and Woody R W, 1993, Analytical Biochemistry 287:252-260; Sreerema N et al, 1999, Protein Science 8:370-380, Provencher S W and Glockner J, 1981, Biochemistry 20:33-37, Van Stokkum I H M et al, 1990, Analytical Biochemistry 191:110-118, Compton L A and Johnson W C, 1986, Analytical Biochemistry 155:155-167, Manavalan P and Johnson W C, 1987, Analytical Biochemistry 167:76-85, Sreerama N et al, 2000, Protein Science 8:370-380) and selecting as a comparison data set the SMP180 protein, which includes a high number of soluble and membrane proteins (Abdul-Gader A et al, 2011, Bioinformatics 27:1630-1636). […]

[3] = Thermostability assay by Circular Dichroism; assay type: physicochemical; settings: 15 to 90° C., 2 hours at 90° C., pH 6, 10 mM SDS
Experimental: The prepared samples were incubated for two hours at 15° C. or 90° C. A CD analysis was performed on samples stored at 15° C. and before and after incubation for two hours at 90° C.

S. thyphimurium (ATCC) = assay type: cell-based, Salmonella typhimurium; settings: 6 h
Experimental: (§1) The evaluation of the minimum bactericidal concentration (MBC) was carried out as described in Bilikova et al, (2015, Peptides 68:190-196) and the evaluation of the effective concentration to reduce 50% of the bacterial population (EC50) of the two peptides was carried out with the micro-dilutions of the broth as described in Wang H X and Ng T B (2003, Peptides 24:969-972). Standard deviations for triple incubations of each plate and EC50 evaluation were determined using GraphPad Prism version 6.00 (Graph-Pad Software, La Jolla Calif. USA) Salmonella typhimurium A control stock suspension was prepared in which 10^3 CFU of S. typhimurium (ATCC13311 strain) were inoculated in 10 ml of BPW (Oxoid, Basingstoke, UK). […] Each dilution series included control plates inoculated with DMSO without the peptide and control plates with bacteria alone. In all the investigated experimental conditions, the plate counting method was used to estimate the bactericidal activity of the peptides. Specifically, the number of colonies grown on plates with agar seeded with bacterial suspensions in the absence or in the presence of individual dilutions of peptides was counted and compared. The standard deviations of the triple incubations of each plate were determined using statistical software. […]

[4] = system: Listeria monocytogenes (ATCC strain and field strains SS1-SS5)
Experimental: The bactericidal activity of the Bac-amp1 and IDR-1018 peptides was evaluated against both Gram+ (Listeria monocytogenes and Staphylococcus aureus) and Gram− (Salmonella typhimurium) pathogenic bacteria.
Standard deviations for triple incubations of each plate and EC50 evaluation were determined using GraphPad Prism version 6.00 (Graph-Pad Software, La Jolla Calif. USA)
As regards Listeria monocytogenes, five field strains were added to the trial (wild strains) SS1 (serotype 4b), SS2 (serotype 4b), SS3 (serotype 4b), SS4 (serotype 4b), SS5 (serotype ½c) shown in Table 2. These strains were isolated from 200 samples of food waste, in particular fish products and milk derivatives, obtained from workbenches of food companies. All samples were collected in a context of official controls. Isolation of Listeria monocytogenes strains was performed according to the ISO-11290-1 standard. […]
In all the investigated experimental conditions, the plate counting method was used to estimate the bactericidal activity of the peptides. Specifically, the number of colonies grown on plates with agar seeded with bacterial suspensions in the absence or in the presence of individual dilutions of peptides was counted and compared. The standard deviations of the triple incubations of each plate were determined using statistical software. […]

[5] = system: L. monocytogenes biofilms
Experimental: The antibiofilm activity of the Bac-amp1 and IDR-1018 peptides was tested by analyzing their ability to inhibit the formation of bacterial biofilms of L. monocytogenes.
The ability of peptides to prevent the formation of L. monocytogenes biofilms was determined according to the microplate assay described in G. Di Bonaventura et al. (2008, J Appl Microbiol 104(6):1552-61) with some modifications.
10 ml of bacterial suspension were then centrifuged the cell pellet was washed in PBS and diluted in BHI broth, reaching the concentration of about 10^3 CFU/ml of standardized inoculum.
The biofilm formation assays were conducted using as target surfaces the Aisi 304 stainless steel discs having a diameter of 14.5 mm (SS) used in the food industry as food contact surfaces. The discs were placed on 24-well Falcon® tissue culture plates, (Thermo Fisher Scientific Inc., Waltham, Mass., USA), with flat bottom and lid. Before use, the stainless steel discs were immersed in 10% acetone and left under weak stirring at room temperature for 30 min. After washing in ultrapure sterile water, the discs were incubated in ethanol 99.8% for 10 minutes under weak stirring and then washed in ultrapure sterile water, dried, packaged and sterilized at 121° C., 1 atm for 15 minutes.
In each set of experiments, 600 μl of standardized inoculum in the presence or absence of each of the peptides at the concentration of 12.5 μM, 25 μM or 50 μM were added to 24-well culture plates containing the previously treated stainless steel materials. BHI Broth was used as a negative control. The plates were incubated at 37° C. for 72 hours under static conditions. The cell count of L. monocytogenes, according to the ISO 11290-2:98 method. After incubation, the SS discs were washed three times with PBS and placed in a new plate to dry at 60° C. for 1 hour. […] Quantitative analysis of biofilm production was performed by adding 1 ml of 33% acetic acid, which removes the dye from the adhered cells. 200 μl of the obtained solution were transferred to a microplate and the crystal violet level (OD) was measured at 492 nm. […]

[6] = system: L. monocytogenes (LM2 food-isolated strain); experiment: Antimicrobial activity of Bac-amp1 coupled gold nanoparticles (CFU count); assay type: cell-based, Listeria monocytogenes; settings: 0.10 μM to 0.58 μM, 15×10^4 CFU/mL, 6 h at 37° C.
Experimental: The bactericidal efficacy of the functionalized gold nanoparticles prepared in Example 6 was determined against L. monocytogenes (LM2 food-isolated strain) and S. Typhimurium (ATCC 13311 strain) bacteria, which allowed the evaluation of the minimal bactericidal concentration (MBC50), corresponding to the lowest peptide concentration able to cause at least 50% reduction in the number of viable bacteria on agar plates.
L. monocytogenes and S. Typhimurium were grown at 37° C. in Half Fraser (Biorad-Italia) and BPW (Biomerieux-Italia) broths, respectively. […]
Data were determined by numbering the surviving colony forming units (CFU) in the Au—NPs-Bac-amp1 plates and in the Au—NPs plates and were expressed as percent decrease in the number of CFU with respect to the initial number of CFU. […]
Thus, in another set of experiments, the activity of Bac-amp1 coupled nanoparticles was determined incubating 15×10^4 CFU/mL (colony forming units/mL) of Listeria with increasing concentrations, ranging from 0.10 μM to 0.58 μM, of coupled nanoparticles (Au—NPs-Bac-amp1 plates), non-functionalized gold nanoparticles (Au—NPs plates) or free peptides (Bac-amp1 plates) for 6 h at 37° C. The number of viable colonies for the different plates at each concentration tested were counted.

S. aureus (NCTC) = assay type: cell-based, Staphylococcus aureus; settings: 6 h
Experimental: as §1, with “Staphylococcus aureus” for “Salmonella typhimurium”, “(6571” for “(ATCC13311”, “BPW.” for “BPW (Oxoid, Basingstoke, UK).”, “Also in this case, the” for “Each”, “only. 50 μl of each bacterial suspension were poured onto petri dishes with blood agar or rabbit plasma fibrinogen agar and incubated for 20 hours at 37° C.” for “alone.”, “compared.” for “compared. The standard deviations of the triple incubations of each plate were determined using statistical software.”

Row | Substance | cells on steel discs by SEM, 5000× image [1] | pH range with increase in the percentage of unordered random coil structure [2] | conformational stability at different pH ([2]; pH 1.0 to 11.0) | thermostability (CD spectra) [3] | EC50 (S. thyphimurium (ATCC)) [nM] | MIC, bactericidal activity against Listeria monocytogenes ([4]; ATCC strain and field strains SS1-SS5) | EC50 ([4]; ATCC strain and field strains SS1-SS5, 6 h) [nM] | MIC, antibiofilm activity ([5]; biofilms) [µM] | MBIC100 (minimum biofilm inhibiting concentration) ([5]; biofilms, 72 h) [µM] | reduction of microbial biomass ([5]; concentrations of 25-50 μM, 72 h, 37° C., steel discs) [%] | biofilm formation by SEM ([1]; 25 μM) | bacterial cell death versus concentration [6] | EC50 (S. aureus (NCTC)) [nM]
1 | VRLIVAVRIWRR-NH2 [IDR-1018, VRLIVAVRIWRR] | a greater number of cells | 8.0-11.0 | higher conformational stability at pH 1.0; also recorded: greater conformational stability at pH 1.0 | high thermostability |  |  |  |  |  |  |  |  | 
2 | VRLIVKVRIWRR-NH2 [Bac-amp1, VRLIVKVRIWRR-NH2] | near absence of cells | 1.0-4.0 |  |  | 2830 | below 10 μM | 550 | 25 to 50 | 25 to 50 | 100 | significantly reduces the formation of biofilm | dose-dependent bacterial cell death | 1660
